Laboratory results reported in patent US10689340B2, “Substituted indoline derivatives as dengue viral replication inhibitors” (priority 2016, dated 2020).
Structures can show the parent of a compound that is named as a salt. Where two headings read alike, the source gives them in different places.

Experiments:
DENV-2 = conditions: analogous DENV-2 antiviral assay, reported activity; cited from earlier work
in vitro [1] = assay type: cell-based; conditions: African green monkey, CC50
Description: (§1) The antiviral activity of the compounds of the invention was tested against DENV-1 strain TC974#666 (NCPV), DENV-2 strain 16681, DENV-3 strain H87 (NCPV) and DENV-4 strain H241 (NCPV) in a RT-qPCR assay. Therefore, Vero cells were infected with either DENV-1, or -2, or -3, or -4 in the presence or absence of test compounds. At day 3 post-infection, the cells were lysed and cell lysates were used to prepare cDNA of both a viral target (the 3′UTR of DENV; Table 2) and a cellular reference gene (β-actin, Table 2). Subsequently, a duplex real time PCR was performed on a Lightcycler480 instrument. The generated Cp value is inversely proportional to the amount of RNA expression of these targets. Inhibition of DENV replication by a test compound results in a shift of Cp's for the 3′UTR gene. On the other hand, if a test compound is toxic to the cells, a similar effect on β-actin expression will be observed. […] In addition, CC50 values are determined based on the Cp values acquired for the housekeeping gene β-actin. […]
(§2) Using the LightCycler software and an in-house LIMS system, dose response curves for each compound were calculated and the half maximal effective concentration (EC50) and the half maximal cytotoxic concentration (CC50) were determined (Tables 5-8).

Vero cells [2] = test: in vitro; assay type: cell-based; conditions: African green monkey, 3 days
Description: as §1, §2

DENV-3 strain H87 = test: Tetravalent RT-qPCR assay, serotype 3; assay type: cell-based; conditions: Dengue virus, DENV3, 72 h; RT-qPCR serotype 3 H87, Protocol A, Vero cells, day 3
Description: (§3) The antiviral activity of the compounds of the invention was tested against DENV-1 strain TC974#666 (NCPV), DENV-2 strain 16681, DENV-3 strain H87 (NCPV) and DENV-4 strain H241 (NCPV) in a RT-qPCR assay. Therefore, Vero cells were infected with either DENV-1, or -2, or -3, or -4 in the presence or absence of test compounds. At day 3 post-infection, the cells were lysed and cell lysates were used to prepare cDNA of both a viral target (the 3′UTR of DENV; Table 2) and a cellular reference gene (β-actin, Table 2). Subsequently, a duplex real time PCR was performed on a Lightcycler480 instrument. The generated Cp value is inversely proportional to the amount of RNA expression of these targets. Inhibition of DENV replication by a test compound results in a shift of Cp's for the 3′UTR gene. On the other hand, if a test compound is toxic to the cells, a similar effect on β-actin expression will be observed. The comparative ΔΔCp method is used to calculate EC50, which is based on the relative gene expression of the target gene (3′UTR) normalized with the cellular housekeeping gene (β-actin). In addition, CC50 values are determined based on the Cp values acquired for the housekeeping gene β-actin.
(§4) The culture medium consisted of minimal essential medium supplemented with 2% of heat-inactivated fetal calf serum, 0.04% gentamycin (50 mg/mL) and 2 mM of L-glutamine. Vero cells, obtained from ECACC, were suspended in culture medium and 75 μL/well was added in 96-well plates (10000 cells/well), which already contain the antiviral compounds. […] In addition, each plate contains wells which are assigned as virus controls (containing cells and virus in the absence of compound) and cell controls (containing cells in the absence of virus and compound). Once the cells were added in the plates, the plates were incubated in a fully humidified incubator (37° C., 5% CO2) until the next day. Dengue viruses serotype-1, -2, -3 and -4 were diluted in order to obtain a Cp of ˜22-24 in the assay. Therefore, 25 μL of virus suspension was added to all the wells containing test compound and to the wells assigned as virus control. In parallel, 25 μL of culture medium was added to the cell controls. Next, the plates were incubated for 3 days in a fully humidified incubator (37° C., 5% CO2). After 3 days, the supernatant was removed from the wells and the cells were washed twice with ice-cold PBS (˜100 μL). The cell pellets within the 96-well plates were stored at −80° C. for at least 1 day. Next, RNA was extracted using the Cells-to-CT^Tm lysis kit, according to the manufacturer's guideline (Life Technologies). The cell lysates can be stored at −80° C. or immediately used in the reverse transcription step.
(§5) In preparation of the reverse transcription step, mix A (table 3A) was prepared and 7.57 μL/well was dispensed in a 96-well plate. After addition of 5 μL of the cell lysates, a five minute denaturation step at 75° C. was performed (table 3B). Afterwards, 7.43 μL of mix B was added (table 3C) and the reverse transcription step was initiated (table 3D) to generate cDNA.
(§6) Finally, a RT-qPCR mix was prepared, mix C (table 4A), and 22.02 μL/well was dispensed in 96-well LightCycler qPCR plates to which 3 μL of cDNA was added and the qPCR was performed according to the conditions in table 4B on a LightCycler 480.
as §2

DENV-4 strain H241 = test: Tetravalent RT-qPCR assay, serotype 4; assay type: cell-based; conditions: Dengue virus, DENV4, 72 h; RT-qPCR serotype 4 H241, Protocol A, Vero cells, day 3
Description: as §3, §4, §5, §6, §2

DENV-2 strain 16681 = test: Tetravalent RT-qPCR assay, serotype 2; assay type: cell-based; conditions: Dengue virus, DENV2, 72 h; RT-qPCR serotype 2 16681, Protocol A, Vero cells, day 3
Description: as §3, §4, §5, §6, §2

DENV-2 16681 strain = test: DENV-2 antiviral assay (eGFP fluorescence); assay type: cell-based, Dengue virus; conditions: DENV-2 16681 eGFP, Vero cells, MOI 0.5, 3 days
Description: The antiviral activity of all the compounds of the invention was tested against the DENV-2 16681 strain which was labeled with enhanced green fluorescent protein (eGPF). The culture medium consists of minimal essential medium supplemented with 2% of heat-inactivated fetal calf serum, 0.04% gentamycin (50 mg/mL) and 2 mM of L-glutamine. Vero cells, obtained from ECACC, were suspended in culture medium and 25 μL was added to 384-well plates (2500 cells/well), which already contain the antiviral compounds. Typically, these plates contain a 5-fold serial dilution of 9 dilution steps of the test compound at 200 times the final concentration in 100% DMSO (200 nL). […] Finally, each plate contains wells which are assigned as virus controls (containing cells and virus in the absence of compound), cell controls (containing cells in the absence of virus and compound) and medium controls (containing medium in the absence of cells, virus and compounds). To the wells assigned as medium control, 25 μL of culture medium was added instead of Vero cells. Once the cells were added to the plates, the plates were incubated for 30 minutes at room temperature to allow the cells to distribute evenly within the wells. Next, the plates were incubated in a fully humidified incubator (37° C., 5% CO2) until the next day. Then, DENV-2 strain 16681, labeled with eGFP, was added at a multiplicity of infection (MOI) of 0.5. Therefore, 15 μL of virus suspension was added to all the wells containing test compound and to the wells assigned as virus control. In parallel, 15 μL of culture medium was added to the medium and cell controls. Next, the plates were incubated for 3 days in a fully humidified incubator (37° C., 5% CO2). At the day of the read out, the eGFP fluorescence was measured using an automated fluorescence microscope at 488 nm (blue laser). Using an in-house LIMS system, inhibition dose response curves for each compound were calculated and the half maximal effective concentration (EC50) was determined. Therefore, the percent inhibition (I) for every test concentration is calculated using the following formula: I=100*(ST-SCC)/(SVC-SCC); ST, SCC and SVC are the amount of eGFP signal in the test compound, cell control and virus control wells, respectively. The EC50, represents the concentration of a compound at which the virus replication is inhibited with 50%, as measured by a 50% reduction of the eGFP fluorescent intensity compared to the virus control. The EC50 is calculated using linear interpolation (Table 1).

DENV-1 strain TC974#666 = test: Tetravalent RT-qPCR assay, serotype 1; assay type: cell-based; conditions: Dengue virus, DENV1, Vero, 72 h
Description: as §3, §4, §5, §6, §2

Vero cells [3] = conditions: African green monkey
in vitro [4] = conditions: African green monkey

CNC(=O)c1cccc(NC(C(=O)c2c[nH]c3ccccc23)c2ccccc2)c1 (stereo not shown) [(170) of WO-2013/045516]
EC50 (DENV-2): 440 nM

COc1cc(NC(C(=O)N2CCc3ccc(C(F)(F)F)cc32)c2ccc(Cl)cc2OC)cc(OCCCC(=O)O)c1 (single isomer, unassigned) [Compound 6B]
CC50 at 3 days (in vitro [1]): > 2500 nM
CC50 (Vero cells [2]): > 2500 nM
EC50 (DENV-3 strain H87): 1.7 nM
EC50 (DENV-4 strain H241): 16 nM
EC50 (DENV-2 strain 16681): 0.15 nM
EC50 (DENV-2 16681 strain): 0.13 nM
EC50 (DENV-1 strain TC974#666): 0.47 nM
CC50 (Vero cells [3]): 13000 nM

COc1cc(NC(C(=O)N2CCc3ccc(OC(F)(F)F)cc32)c2ccc(Cl)cc2OC)cc(OCCCC(=O)O)c1 (racemic) (as salt: HCl) [Compound 8, 4-(3-((1-(4-chloro-2-methoxyphenyl)-2-oxo-2-(6-(trifluoro-methoxy)indolin-1-yl)ethyl)amino)-5-methoxyphenoxy)butanoic acid]
melting point: 139 °C

COc1cccc(NC(C(=O)N2CCc3ccccc32)c2ccccc2)c1 (stereo not shown) [(56) of WO-2013/045516]
EC50 (DENV-2): 450 nM

COc1cc(NC(C(=O)N2CCc3ccc(C(F)(F)F)cc32)c2ccc(Cl)cc2)cc(OCCCC(=O)O)c1 (racemic) [Compound 3, 4-(3-((1-(4-chlorophenyl)-2-oxo-2-(6-(trifluoromethyl)indolin-1-yl)ethyl)amino)-5-methoxyphenoxy)butanoic acid]
melting point: 192 °C
EC50 (DENV-2 16681 strain; Dengue virus, DENV2, Vero, 72 h): 0.48 nM
CC50 (in vitro [4]): 13000 nM

COc1cc(NC(C(=O)N2CCc3ccc(C(F)(F)F)cc32)c2ccc(Cl)cc2F)cc(OCCCC(=O)O)c1 (racemic) (as salt: HCl) [Compound 9, 4-(3-((1-(4-chloro-2-fluorophenyl)-2-oxo-2-(6-(trifluoromethyl)indolin-1-yl)ethyl)amino)-5-methoxy-phenoxy)butanoic acid]
melting point: 110 °C

COc1cc(NC(C(=O)N2CCc3cc(OC)c(C(F)(F)F)cc32)c2ccc(Cl)cc2OC)cc(OCCCC(=O)O)c1 (racemic) (as salt: HCl) [Compound 7, 4-(3-((1-(4-chloro-2-methoxyphenyl)-2-(5-methoxy-6-(trifluoromethyl)indolin-1-yl)-2-oxoethyl)amino)-5-methoxyphenoxy)butanoic acid]
melting point: 160 °C

COc1cc(NC(C(=O)N2CCc3ccc(OC(F)(F)F)cc32)c2ccc(F)cc2)cc(OCCCC(=O)O)c1 (racemic) (as salt: HCl) [Compound 2, 4-(3-((1-(4-fluorophenyl)-2-oxo-2-(6-(trifluoromethoxy)indolin-1-yl)ethyl)amino)-5-methoxyphenoxy)butanoic acid]
melting point: 136 °C

COc1cc(NC(C(=O)N2CCc3cc(OC)c(C(F)(F)F)cc32)c2ccc(Cl)cc2)cc(OCCCC(=O)O)c1 (racemic) (as salt: HCl) [Compound 5, 4-(3-((1-(4-chlorophenyl)-2-(5-methoxy-6-(trifluoromethyl)indolin-1-yl)-2-oxoethyl)amino)-5-methoxyphenoxy)butanoic Acid]
melting point: 130 °C

COc1cc(NC(C(=O)N2CCc3ccc(C(F)(F)F)cc32)c2ccc(Cl)cc2OC)cc(OCCCC(=O)O)c1 (racemic) (as salt: HCl) [Compound 6, 4-(3-((1-(4-chloro-2-methoxyphenyl)-2-oxo-2-(6-(trifluoro-methyl)indolin-1-yl)ethyl)amino)-5-methoxyphenoxy)butanoic acid]
melting point: 178 °C
